Source: patent US7348342B2, “Heterocyclic compounds process for their preparation and pharmaceutical compositions containing them and their use in medicine” (Cadila Healthcare Limited, priority 2002, dated 2008)

Tested on: carrageenan foot pad edema
Experiment: carrageenan foot pad edema test
Type: in vivo
Settings: Wistar rats, dose 30 mg/kg by oral gavage 1 h before carrageenan; for % Inhibition of paw edema 1 hour: 1 hour after carrageenan injection; for % Inhibition of paw edema 3 hour: 3 hour after carrageenan injection
Excerpt: The compounds of the present invention have been tested for their biological activities by carrageenan foot pad edema test in male as well as female Wistar rats according to standard protocol described in literature (Winter et. al, Proc. Soc. Exp. Biol. Med., 111, 544, (1962); Otterness and Bliven, Laboratory Models for Testing NSAIDS, in Non-Steroidal Anti-inflammatory Drugs, (J. Lombardino, ed. 1985)). The protocol followed was as described below:
Wistar rats obtained from the Experimental Animal Facility of Zydus Research. Centre. Animals were housed in an environmentally controlled rooms with food and water available ad-libitum. All the experimental protocols were approved by the Institutional Animal Ethics Committee. Animals were divided into different groups, each group comprising of five-six animals. After an overnight fast, animals of the control group received vehicle only by oral gavage whereas animals of the other groups received different doses of the test substance(s). Each rat received same volume of the formulation i.e. 2 ml/kg on body weight basis. One hour after administration of the vehicle or test substance, all the animals received sub-planter injection of carrageenan (1% w/v in saline). Paw volume was measured at 0, 1, 3 and 5 hour after carrageenan injection. Anti-inflammatory activity, expressed as % Inhibition in paw swelling was calculated by measuring change in paw volume at different time intervals after carrageenan injection vs corresponding 0 hr values using the following formula.
[formula] Where • PVC=Average change in Paw volume of control animals • PVT=Average change in Paw volume of treated animals.

Compound | % Inhibition of paw edema 1 hour | % Inhibition of paw edema 3 hour
5-Chloro-3-(4-methylsulfoximinylphenyl)-[2,3′]bipyridinyl [Compound 97] | 13% | 36%
5-methyl-4-(4-methylsulfoximinylphenyl)-3-phenyl-isoxazole [Compound 153] | 42% | 43%
3-(4-Methylphenyl)-4-(3-fluoro-4-methylsulfoximinylphenyl-5H-furan-2-one [Compound 112] | 57% | 40%
3-(4-Methoxyphenyl)-5-methyl-4-(4-methylsulfoximinylphenyl)-isoxazole [Compound 154] | 46% | 47%
Cc1ccc(-c2cc(C(F)(F)F)nn2-c2ccc(S(N)(=O)=O)cc2)cc1 [Celecoxib, reference compound] | 33% | 26%
